{"source": "paper PMC8231556", "about": "“Inhibiting Endothelial Cell Function in Normal and Tumor Angiogenesis Using BMP Type I Receptor Macrocyclic Kinase Inhibitors” (Cancers, 2021)", "tested_on": "HUVECs", "experiment": "Cord formation assay, HUVEC-eGFP co-cultured with human dermal fibroblasts", "format": "cell-based", "conditions": "VEGF 15 ng/mL, 6 days; 0.5 µM (Sunitinib 1 μM)", "procedure": "The cord formation assay was performed according to the IncuCyte Angiogenesis PrimeKit Assay protocol (Cell Player Angiogenesis PrimeKit, Essen BioScience). In brief, GFP labeled HUVEC cells and human dermal fibroblasts were mixed in a 1:20 ratio and seeded per well in a 96-well plate (3150 cells in total). Thereafter, the cells were exposed to VEGF alone or in combination with the compounds (at indicated concentrations) in a complete assay medium. Pictures were captured every 6 h for up to 9 days To monitor the cord formation. The medium was refreshed every 2 or 3 days. Cords formation was visualized by the GFP fluorescence, and cord length was quantified with the instrument’s software. All the experiments were repeated at least three times, and representative experiments are shown.", "data": [{"smiles": "CCN(CC)CCNC(=O)c1c(C)[nH]c(/C=C2\\C(=O)Nc3ccc(F)cc32)c1C", "note": "[Sunitinib, reference compound]", "values": [{"measurement": "effect on VEGF-induced EC cord formation", "value": "strongly suppressed"}]}]}
